We go through nine compounds from paper PMC6265332, “A scalable peptide-GPCR language for engineering multicellular communication” (Nature Communications, 2018).

The test concerns fungal mating GPCRs (Ste2-like, xy.Ste2) expressed in S. cerevisiae strain JTy014. It is filed as cell-based, Ascomycete species of the code; expressed in S. cerevisiae. The settings on record: GPCR of the same code; for Bttm (basal activation) / Span / Top (maximal activation): fit parameter of the dose-response curve, A600-normalised RFP fluorescence, 8 h, triplicate; for Fold Change: fold activation, peptide-treated maximum over water-treated A600-normalised fluorescence; for Hill Slope: four-parameter fit of the dose-response curve (dynamic range).

Where a SMILES comes first, the peptide text is derived from it.

Consider “WCGHIGQGC [Pr, mature mating peptide ligand 1, Penicillium chrysogenum]”, for which the “Bttm (basal activation)” value was 27.9, the Span amounted to 179.4, the “Top (maximal activation)” value worked out at 207.3 and the “Fold Change” value was 7.4. In addition, the “Hill Slope” value amounted to 0.6.

Consider “WCMRPGQPCW [Bb, mature mating peptide ligand 1, Beauvaria bassiana]”, for which the “Bttm (basal activation)” value came out at 25.2, the Span is 218.9, the “Top (maximal activation)” value is on record as 244.1 and the “Fold Change” value is 9.7. Moreover, the “Hill Slope” value stood at 1.0.

In the case of “WCTRPGQGC [Pb, mature mating peptide ligand 1, Paracoccidioides brasiliensis]”, the “Bttm (basal activation)” value is 20.2, the Span is on record as 196.9, the “Top (maximal activation)” value is on record as 217.1 and the “Fold Change” value amounted to 10.8. Further, the “Hill Slope” value is 0.5.

Consider “QWCR---IHGQSCW [Nc, mature mating peptide ligand 1, Neurospora crassa]”, for which the “Bttm (basal activation)” value stood at 27.6, the Span is listed as 259.2, the “Top (maximal activation)” value is reported as 286.7 and the “Fold Change” value was determined as 10.4. In addition, the “Hill Slope” value was determined as 0.6.

Consider “FCWRPGQPCG [Pd, mature mating peptide ligand 1, Pseudogymnoascus destructans]”, for which the “Bttm (basal activation)” value amounted to 28.8, the Span came out at 161.2, the “Top (maximal activation)” value turned out to be 190.0 and the “Fold Change” value came to 6.6. The “Hill Slope” value amounted to 0.7.

As for “KPHWTTYGYYEPQ [Cp, mature mating peptide ligand 1, Candida parapsilosis]”, the “Bttm (basal activation)” value was 36.2, the Span is 217.8, the “Top (maximal activation)” value was 254.0 and the “Fold Change” value is listed as 7.0. Further, the “Hill Slope” value came out at 0.8.

Regarding `CC[C@H](C)[C@H](NC(=O)[C@H](Cc1c[nH]c2ccccc12)NC(=O)CN)C(=O)NCC(=O)N[C@@H](CCCNC(=N)N)C(=O)N[C@@H](CS)C(=O)NCC(=O)N[C@H](C(=O)N1CCC[C@H]1C(=O)NCC(=O)N[C@@H](CO)C(=O)N[C@@H](CO)C(=O)N[C@@H](CS)C(=O)O)C(C)C` [Bm] (H-GWIGRCGVPGSSC-OH; N-terminus and C-terminus assumed), the “Bttm (basal activation)” value was found to be 30.3, the Span is 128.4, the “Top (maximal activation)” value is reported as 158.8 and the “Fold Change” value was determined as 5.2. The “Hill Slope” value is given as 1.2.

Consider “WCGRPGQPC [Bc, mature mating peptide ligand 1, Botrytis cinerea]”, for which the “Bttm (basal activation)” value was 28.6, the Span is listed as 323.3, the “Top (maximal activation)” value was found to be 351.9 and the “Fold Change” value is 12.3. Moreover, the “Hill Slope” value is recorded as 0.7.

On to “WCYRIGEPCW [Hj, mature mating peptide ligand 1, Hypocrea jecorina]”, for which the “Bttm (basal activation)” value came to 53.0, the Span came out at 376.5, the “Top (maximal activation)” value amounted to 429.5 and the “Fold Change” value was 8.1. Also, the “Hill Slope” value is recorded as 0.6.
